Reference: patent US8802597B2, “Herbicidal pyrimidines” (E I du Pont de Nemours and Company, priority 2003, dated 2014)
Read-outs that look alike come from different tables or passages of the source.

What was measured:
Format in all cases: in vivo
[1] = test system: Surinam grass (Brachiaria decumbens); assay: Test B pre/postemergence; details: Urochloa decumbens; for pest or weed control at 125 g/ha: 125 g ai/ha; for pest or weed control at 500 g/ha: 500 g ai/ha
Method in brief: (§1)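 Pre: compound (non-phytotoxic solvent + surfactant) applied to freshly planted seeds. Post: same formulation sprayed on 2–18 cm plants, 1- to 4-leaf. Readout: visual control rating 0–100 vs controls, 13–15 d, greenhouse.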

[2] = test system: barnyardgrass (Echinochloa crus-galli); assay: Test B pre/postemergence; details: Echinochloa crus-galli; for pest or weed control at 125 g/ha: 125 g ai/ha; for pest or weed control at 500 g/ha: 500 g ai/ha
Method in brief: as §1

[3] = test system: cocklebur (Xanthium strumarium); assay: Test B pre/postemergence; details: Xanthium strumarium; for pest or weed control at 125 g/ha: 125 g ai/ha; for pest or weed control at 500 g/ha: 500 g ai/ha
Method in brief: as §1

[4] = test system: corn (Zea mays); assay: Test B pre/postemergence; details: Zea mays
Method in brief: as §1

[5] = test system: crabgrass (Digitaria sanguinalis); assay: Test B pre/postemergence; details: Digitaria sanguinalis; for pest or weed control at 125 g/ha: 125 g ai/ha; for pest or weed control at 500 g/ha: 500 g ai/ha
Method in brief: as §1

[6] = test system: giant foxtail (Setaria faberii); assay: Test B pre/postemergence; details: Setaria faberi; for pest or weed control at 125 g/ha: 125 g ai/ha; for pest or weed control at 500 g/ha: 500 g ai/ha
Method in brief: as §1

[7] = test system: lambsquarters (Chenopodium album); assay: Test B pre/postemergence; details: Chenopodium album; for pest or weed control at 125 g/ha: 125 g ai/ha; for pest or weed control at 500 g/ha: 500 g ai/ha
Method in brief: as §1

[8] = test system: morningglory (Ipomoea coccinea); assay: Test B pre/postemergence; details: Ipomoea; for pest or weed control at 125 g/ha: 125 g ai/ha; for pest or weed control at 500 g/ha: 500 g ai/ha
Method in brief: as §1

[9] = test system: pigweed (Amaranthus retroflexus); assay: Test B pre/postemergence; details: Amaranthus retroflexus; for pest or weed control at 125 g/ha: 125 g ai/ha; for pest or weed control at 500 g/ha: 500 g ai/ha
Method in brief: as §1

[10] = test system: velvetleaf (Abutilon theophrasti); assay: Test B pre/postemergence; details: Abutilon theophrasti; for pest or weed control at 125 g/ha: 125 g ai/ha; for pest or weed control at 500 g/ha: 500 g ai/ha
Method in brief: as §1

[11] = test system: wheat (Triticum aestivum); assay: Test B pre/postemergence; details: Triticum aestivum; for plant injury at 125 g/ha: 125 g ai/ha; for plant injury at 500 g/ha: 500 g ai/ha
Method in brief: as §1

[12] = test system: blackgrass (Alopecurus myosuroides); assay: Test B postemergence; details: Alopecurus myosuroides, post-emergence
Method in brief: as §1

[13] = test system: wild oat (Avena fatua); assay: Test B postemergence; details: Avena fatua, post-emergence
Method in brief: as §1

[14] = test system: barnyardgrass (Echinochloa crus-galli); assay: Test B flooded paddy test; details: Echinochloa crus-galli, Flood, 1000 g ai/ha; scale 0 (no effect) to 100 (complete control); read-out: Plant response rating, Barnyardgrass
Method in brief: (§2)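 Visual injury scoring (0 = no effect, 100 = complete control) versus controls made 13 to 15 days after treatment in the greenhouse. Test species were grown in flooded paddy to the 2-leaf stage: rice, barnyardgrass, umbrella sedge, duck salad.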

[15] = test system: duck salad (Heteranthera limosa); assay: Test B flooded paddy test; details: Heteranthera limosa, Flood, 1000 g ai/ha; scale 0 to 100; read-out: Plant response rating, Ducksalad
Method in brief: as §2

[16] = test system: rice (Oryza sativa); assay: Test B flooded paddy test; details: Oryza sativa, Flood, 1000 g ai/ha; scale 0 to 100; read-out: Plant response rating, Rice
Method in brief: as §2

[17] = test system: umbrella sedge (Cyperus difformis); assay: Test B flooded paddy test; details: Cyperus difformis, Flood, 1000 g ai/ha; scale 0 to 100; read-out: Plant response rating, Sedge, Umbrella
Method in brief: as §2

## Nc1nc(C2CC2)nc(C=O)c1F [Compound 24]
[1]; post-emergence, Postemergence, scale 0 to 100 (0 no effect, 100 complete control), read-out: Surinam Grass plant response rating
  pest or weed control at 125 g/ha: 0%
[1]; post-emergence, Postemergence, scale 0 to 100, read-out: Plant response rating, Surinam Grass
  pest or weed control at 500 g/ha: 10%
[1]; pre-emergence, Preemergence, scale 0 to 100 (0 no effect, 100 complete control), read-out: Plant response rating, Surinam Grass
  pest or weed control at 125 g/ha: 10%
[1]; pre-emergence, Preemergence, scale 0 to 100 (0 no effect, 100 complete control), read-out: Surinam Grass plant response rating
  pest or weed control at 500 g/ha: 50%
[2]; post-emergence, Postemergence, scale 0 to 100 (0 no effect, 100 complete control), read-out: Barnyardgrass plant response rating
  pest or weed control at 125 g/ha: 0%
[2]; post-emergence, Postemergence, scale 0 to 100, read-out: Plant response rating, Barnyardgrass
  pest or weed control at 500 g/ha: 10%
[2]; pre-emergence, Preemergence, scale 0 to 100 (0 no effect, 100 complete control), read-out: Plant response rating, Barnyardgrass
  pest or weed control at 125 g/ha: 0%
[2]; pre-emergence, Preemergence, scale 0 to 100 (0 no effect, 100 complete control), read-out: Barnyardgrass plant response rating
  pest or weed control at 500 g/ha: 20%
[3]; post-emergence, Postemergence, scale 0 to 100 (0 no effect, 100 complete control), read-out: Cocklebur plant response rating
  pest or weed control at 125 g/ha: 50%
[3]; post-emergence, Postemergence, scale 0 to 100, read-out: Plant response rating, Cocklebur
  pest or weed control at 500 g/ha: 70%
[3]; pre-emergence, Preemergence, scale 0 to 100 (0 no effect, 100 complete control), read-out: Plant response rating, Cocklebur
  pest or weed control at 125 g/ha: 80%
[3]; pre-emergence, Preemergence, scale 0 to 100 (0 no effect, 100 complete control), read-out: Cocklebur plant response rating
  pest or weed control at 500 g/ha: 90%
[4]; post-emergence, Postemergence, 125 g ai/ha, scale 0 to 100 (0 no effect, 100 complete control), read-out: Corn plant response rating
  plant injury at 125 g/ha: 0%
[4]; post-emergence, Postemergence, 500 g ai/ha, scale 0 to 100
  Corn plant response rating (crop injury, 0 = no effect, 100 = complete kill) at 500 g/ha: 10%
[4]; pre-emergence, Preemergence, 500 g ai/ha, scale 0 to 100 (0 no effect, 100 complete control), read-out: Corn plant response rating
  plant injury at 500 g/ha: 0%
[5]; post-emergence, Postemergence, scale 0 to 100 (0 no effect, 100 complete control), read-out: Crabgrass plant response rating
  pest or weed control at 125 g/ha: 20%
[5]; post-emergence, Postemergence, scale 0 to 100, read-out: Plant response rating, Crabgrass
  pest or weed control at 500 g/ha: 40%
[5]; pre-emergence, Preemergence, scale 0 to 100 (0 no effect, 100 complete control), read-out: Plant response rating, Crabgrass
  pest or weed control at 125 g/ha: 60%
[5]; pre-emergence, Preemergence, scale 0 to 100 (0 no effect, 100 complete control), read-out: Crabgrass plant response rating
  pest or weed control at 500 g/ha: 80%
[6]; post-emergence, Postemergence, scale 0 to 100 (0 no effect, 100 complete control), read-out: Foxtail, Giant plant response rating
  pest or weed control at 125 g/ha: 20%
[6]; post-emergence, Postemergence, scale 0 to 100, read-out: Plant response rating, Foxtail, Giant
  pest or weed control at 500 g/ha: 30%
[6]; pre-emergence, Preemergence, scale 0 to 100 (0 no effect, 100 complete control), read-out: Plant response rating, Foxtail, Giant
  pest or weed control at 125 g/ha: 10%
[6]; pre-emergence, Preemergence, scale 0 to 100 (0 no effect, 100 complete control), read-out: Foxtail, Giant plant response rating
  pest or weed control at 500 g/ha: 60%
[7]; post-emergence, Postemergence, scale 0 to 100 (0 no effect, 100 complete control), read-out: Lambsquarters plant response rating
  pest or weed control at 125 g/ha: 70%
[7]; post-emergence, Postemergence, scale 0 to 100, read-out: Plant response rating, Lambsquarters
  pest or weed control at 500 g/ha: 80%
[7]; pre-emergence, Preemergence, scale 0 to 100 (0 no effect, 100 complete control), read-out: Plant response rating, Lambsquarters
  pest or weed control at 125 g/ha: 70%
[7]; pre-emergence, Preemergence, scale 0 to 100 (0 no effect, 100 complete control), read-out: Lambsquarters plant response rating
  pest or weed control at 500 g/ha: 90%
[8]; post-emergence, Postemergence, scale 0 to 100 (0 no effect, 100 complete control), read-out: Morningglory plant response rating
  pest or weed control at 125 g/ha: 60%
[8]; post-emergence, Postemergence, scale 0 to 100, read-out: Plant response rating, Morningglory
  pest or weed control at 500 g/ha: 90%
[8]; pre-emergence, Preemergence, scale 0 to 100 (0 no effect, 100 complete control), read-out: Plant response rating, Morningglory
  pest or weed control at 125 g/ha: 50%
[8]; pre-emergence, Preemergence, scale 0 to 100 (0 no effect, 100 complete control), read-out: Morningglory plant response rating
  pest or weed control at 500 g/ha: 90%
[9]; post-emergence, Postemergence, scale 0 to 100 (0 no effect, 100 complete control), read-out: Pigweed plant response rating
  pest or weed control at 125 g/ha: 70%
[9]; post-emergence, Postemergence, scale 0 to 100, read-out: Plant response rating, Pigweed
  pest or weed control at 500 g/ha: 80%
[9]; pre-emergence, Preemergence, scale 0 to 100 (0 no effect, 100 complete control), read-out: Plant response rating, Pigweed
  pest or weed control at 125 g/ha: 80%
[9]; pre-emergence, Preemergence, scale 0 to 100 (0 no effect, 100 complete control), read-out: Pigweed plant response rating
  pest or weed control at 500 g/ha: 90%
[10]; post-emergence, Postemergence, scale 0 to 100 (0 no effect, 100 complete control), read-out: Velvetleaf plant response rating
  pest or weed control at 125 g/ha: 40%
[10]; post-emergence, Postemergence, scale 0 to 100, read-out: Plant response rating, Velvetleaf
  pest or weed control at 500 g/ha: 50%
[10]; pre-emergence, Preemergence, scale 0 to 100 (0 no effect, 100 complete control), read-out: Plant response rating, Velvetleaf
  pest or weed control at 125 g/ha: 50%
[10]; pre-emergence, Preemergence, scale 0 to 100 (0 no effect, 100 complete control), read-out: Velvetleaf plant response rating
  pest or weed control at 500 g/ha: 80%
[11]; post-emergence, Postemergence, scale 0 to 100 (0 no effect, 100 complete control), read-out: Wheat plant response rating
  plant injury at 125 g/ha: 0%
[11]; post-emergence, Postemergence, scale 0 to 100, read-out: Plant response rating, Wheat
  plant injury at 500 g/ha: 0%
[11]; pre-emergence, Preemergence, scale 0 to 100 (0 no effect, 100 complete control), read-out: Plant response rating, Wheat
  plant injury at 125 g/ha: 30%
[11]; pre-emergence, Preemergence, scale 0 to 100 (0 no effect, 100 complete control), read-out: Wheat plant response rating
  plant injury at 500 g/ha: 70%
[12]; 125 g ai/ha, scale 0 to 100 (0 no effect, 100 complete control), read-out: Blackgrass plant response rating
  pest or weed control at 125 g/ha: 0%
[12]; 500 g ai/ha, scale 0 to 100, read-out: Plant response rating, Blackgrass
  pest or weed control at 500 g/ha: 10%
[13]; 125 g ai/ha, scale 0 to 100 (0 no effect, 100 complete control), read-out: Oat, Wild plant response rating
  pest or weed control at 125 g/ha: 0%
[13]; 500 g ai/ha, scale 0 to 100, read-out: Plant response rating, Oat, Wild
  pest or weed control at 500 g/ha: 0%
[14]
  pest or weed control at 1000 g/ha: 0%
[15]
  pest or weed control at 1000 g/ha: 0%
[16]
  plant injury at 1000 g/ha: 10%
[17]
  pest or weed control at 1000 g/ha: 20%
